Legend:
Assay type in all cases: functional
SK-MEL-28 = test: Cytotoxicity against human SK-MEL-28 cells assessed as growth inhibition at 10 uM after 48 hrs by SRB assay; settings: SK-MEL-28, 48 h, read-out: GI
M14 = test: Cytotoxicity against human M14 cells assessed as growth inhibition at 10 uM after 48 hrs by SRB assay; settings: M14, 48 h, read-out: GI
HOP-62 = test: Cytotoxicity against human HOP62 cells assessed as growth inhibition at 10 uM after 48 hrs by SRB assay; settings: HOP-62, 48 h, read-out: GI
SK-MEL-2 = test: Cytotoxicity against human SK-MEL-2 cells assessed as growth inhibition at 10 uM after 48 hrs by SRB assay; settings: SK-MEL-2, 48 h, read-out: GI
[1] = Cytotoxicity against human NCI-ADR-RES cells assessed as growth inhibition at 10 uM after 48 hrs by SRB assay; settings: read-out: GI
SF-268 = test: Cytotoxicity against human SF268 cells assessed as growth inhibition at 10 uM after 48 hrs by SRB assay; settings: SF-268, 48 h, read-out: GI
U-251 = test: Cytotoxicity against human U251 cells assessed as growth inhibition at 10 uM after 48 hrs by SRB assay; settings: U-251, 48 h, read-out: GI
HL-60(TB) = test: Cytotoxicity against human HL-60(TB) cells assessed as growth inhibition at 10 uM after 48 hrs by SRB assay; settings: HL-60, 48 h, read-out: GI
LOX IMVI = test: Cytotoxicity against human LOXIMVI cells assessed as growth inhibition at 10 uM after 48 hrs by SRB assay; settings: read-out: GI
ACHN = test: Cytotoxicity against human ACHN cells assessed as growth inhibition at 10 uM after 48 hrs by SRB assay; settings: read-out: GI
UACC-257 = test: Cytotoxicity against human UACC257 cells assessed as growth inhibition at 10 uM after 48 hrs by SRB assay; settings: UACC-257, 48 h, read-out: GI
NCI-H460 = test: Cytotoxicity against human NCI-H460 cells assessed as growth inhibition at 10 uM after 48 hrs by SRB assay; settings: NCI-H460, 48 h, read-out: GI
A498 = test: Cytotoxicity against human A498 cells assessed as growth inhibition at 10 uM after 48 hrs by SRB assay; settings: A498, 48 h, read-out: GI
SN12C = test: Cytotoxicity against human SN12C cells assessed as growth inhibition at 10 uM after 48 hrs by SRB assay; settings: read-out: GI
SK-MEL-5 = test: Cytotoxicity against human SK-MEL-5 cells assessed as growth inhibition at 10 uM after 48 hrs by SRB assay; settings: SK-MEL-5, 48 h, read-out: GI
TK-10 = test: Cytotoxicity against human TK10 cells assessed as growth inhibition at 10 uM after 48 hrs by SRB assay; settings: TK-10, 48 h, read-out: GI
SR = test: Cytotoxicity against human SR cells assessed as growth inhibition at 10 uM after 48 hrs by SRB assay; settings: read-out: GI
HCT-15 = test: Cytotoxicity against human HCT15 cells assessed as growth inhibition at 10 uM after 48 hrs by SRB assay; settings: HCT-15, 48 h, read-out: GI
SW-620 = test: Cytotoxicity against human SW620 cells assessed as growth inhibition at 10 uM after 48 hrs by SRB assay; settings: SW-620, 48 h, read-out: GI
DU-145 = test: Cytotoxicity against human DU145 cells assessed as growth inhibition at 10 uM after 48 hrs by SRB assay; settings: DU-145, 48 h, read-out: GI
HOP-92 = test: Cytotoxicity against human HOP92 cells assessed as growth inhibition at 10 uM after 48 hrs by SRB assay; settings: HOP-92, 48 h, read-out: GI
SNB-19 = test: Cytotoxicity against human SNB19 cells assessed as growth inhibition at 10 uM after 48 hrs by SRB assay; settings: SNB-19, 48 h, read-out: GI
Hs-578T = test: Cytotoxicity against human Hs578T cells assessed as growth inhibition at 10 uM after 48 hrs by SRB assay; settings: read-out: GI
PC-3 = test: Cytotoxicity against human PC3 cells assessed as growth inhibition at 10 uM after 48 hrs by SRB assay; settings: PC-3, 48 h, read-out: GI
NCI-H322M = test: Cytotoxicity against human NCI-H322M cells assessed as growth inhibition at 10 uM after 48 hrs by SRB assay; settings: read-out: GI
SF-295 = test: Cytotoxicity against human SF295 cells assessed as growth inhibition at 10 uM after 48 hrs by SRB assay; settings: SF-295, 48 h, read-out: GI
SNB-75 = test: Cytotoxicity against human SNB75 cells assessed as growth inhibition at 10 uM after 48 hrs by SRB assay; settings: SNB-75, 48 h, read-out: GI
NCI-H23 = test: Cytotoxicity against human NCI-H23 cells assessed as growth inhibition at 10 uM after 48 hrs by SRB assay; settings: NCI-H23, 48 h, read-out: GI
RPMI-8226 = test: Cytotoxicity against human RPMI8226 cells assessed as growth inhibition at 10 uM after 48 hrs by SRB assay; settings: RPMI-8226, 48 h, read-out: GI
COLO 205 = test: Cytotoxicity against human COLO205 cells assessed as growth inhibition at 10 uM after 48 hrs by SRB assay; settings: COLO 205, 48 h, read-out: GI
NCI-H522 = test: Cytotoxicity against human NCI-H522 cells assessed as growth inhibition at 10 uM after 48 hrs by SRB assay; settings: NCI-H522, 48 h, read-out: GI
KM12 = test: Cytotoxicity against human KM12 cells assessed as growth inhibition at 10 uM after 48 hrs by SRB assay; settings: KM12, 48 h, read-out: GI
HCT-116 = test: Cytotoxicity against human HCT116 cells assessed as growth inhibition at 10 uM after 48 hrs by SRB assay; settings: HCT-116, 48 h, read-out: GI
Malme-3M = test: Cytotoxicity against human MALME-3M cells assessed as growth inhibition at 10 uM after 48 hrs by SRB assay; settings: read-out: GI
T47D = test: Cytotoxicity against human T47D cells assessed as growth inhibition at 10 uM after 48 hrs by SRB assay; settings: read-out: GI
UACC-62 = test: Cytotoxicity against human UACC62 cells assessed as growth inhibition at 10 uM after 48 hrs by SRB assay; settings: UACC-62, 48 h, read-out: GI
MDA-MB-435 = test: Cytotoxicity against human MDA-MB-435 cells assessed as growth inhibition at 10 uM after 48 hrs by SRB assay; settings: MDA-MB-435, 48 h, read-out: GI
MDA-MB-231 = test: Cytotoxicity against human MDA-MB-231 cells assessed as growth inhibition at 10 uM after 48 hrs by SRB assay; settings: MDA-MB-231, 48 h, read-out: GI

`O=C(Nc1ccccc1)Nc1ccc(NC2=NS(=O)(=O)c3ccccc32)cc1` showed an inhibition of growth at 10 µM (SK-MEL-28) of -10%, an inhibition of growth at 10 µM (M14) of -3% and an inhibition of growth at 10 µM (HOP-62) of -11%. For the same compound, the inhibition of growth at 10 µM (SK-MEL-2) was -14%, the inhibition of growth at 10 µM [1] was -2% and the inhibition of growth at 10 µM (SF-268) was -1%. It also gave an inhibition of growth at 10 µM (U-251) of 1%, an inhibition of growth at 10 µM (HL-60(TB)) of 5% and an inhibition of growth at 10 µM (LOX IMVI) of 2%. It also gave an inhibition of growth at 10 µM (ACHN) of -8%, an inhibition of growth at 10 µM (UACC-257) of -1% and an inhibition of growth at 10 µM (NCI-H460) of -3%. The inhibition of growth at 10 µM (A498) was 16%, the inhibition of growth at 10 µM (SN12C) was 0% and the inhibition of growth at 10 µM (SK-MEL-5) was 6%. It also gave an inhibition of growth at 10 µM (TK-10) of -12%, an inhibition of growth at 10 µM (SR) of 3% and an inhibition of growth at 10 µM (HCT-15) of -7%. It also gave an inhibition of growth at 10 µM (SW-620) of -4%, an inhibition of growth at 10 µM (DU-145) of -1% and an inhibition of growth at 10 µM (HOP-92) of 1%. The inhibition of growth at 10 µM (SNB-19) was -5%, the inhibition of growth at 10 µM (Hs-578T) was -9% and the inhibition of growth at 10 µM (PC-3) was -3%. It also gave an inhibition of growth at 10 µM (NCI-H322M) of -8%, an inhibition of growth at 10 µM (SF-295) of 1% and an inhibition of growth at 10 µM (SNB-75) of 19%. For the same compound, the inhibition of growth at 10 µM (NCI-H23) was 3%, the inhibition of growth at 10 µM (RPMI-8226) was -2% and the inhibition of growth at 10 µM (COLO 205) was -19%. For the same compound, the inhibition of growth at 10 µM (NCI-H522) was -6%, the inhibition of growth at 10 µM (KM12) was -6% and the inhibition of growth at 10 µM (HCT-116) was -6%. For the same compound, the inhibition of growth at 10 µM (Malme-3M) was -1%, the inhibition of growth at 10 µM (T47D) was 10% and the inhibition of growth at 10 µM (UACC-62) was -7%. For the same compound, the inhibition of growth at 10 µM (MDA-MB-435) was 0% and the inhibition of growth at 10 µM (MDA-MB-231) was 11%.

— ChEMBL document CHEMBL2331514, “Structure-based design and synthesis of novel pseudosaccharine derivatives as antiproliferative agents and kinase inhibitors” (Eur J Med Chem, 2013)
